Key:
[1] = system: very dry, irritated and problematic skin; experiment: Tending effect of care product on skin; type: in vivo; settings: 0.5% (wt. percent) ectoine in evening primrose oil containing product
[2] = 0.1% (wt. percent) added to evening primrose oil preparation; room temperature, 25° C.; first occurrence of rancid smell
Description: The stability of the preparation was assessed based on the first occurrence of a rancid smell of the evening primrose oil.

Row | Compound | tending effect compared with evening primrose oil containing tending product of identical composition [1] | improved evening primrose oil storage stability compared to a check preparation without diglycerol phosphates [2]
1 | CC1=NCC[C@@H](C(=O)O)N1 [ectoine] | noticeably better tending effect | 
2 | diglycerol phosphate |  | five
